ChEMBL document CHEMBL3856189, “Synthesis of novel diterpenoid analogs with in-vivo antitumor activity” (Eur J Med Chem, 2016)

Key:
[1] = Antiproliferative activity against human MDA-MB-231 cells after 96 hrs by SRB assay; assay type: functional, cell-based; conditions: MDA-MB-231, 96 h
[2] = Antiproliferative activity against human MCF7 cells after 96 hrs by SRB assay; assay type: functional, cell-based; conditions: MCF7, 96 h
[3] = Antiproliferative activity against human T47D cells after 96 hrs by SRB assay; assay type: functional, cell-based
[4] = Antiproliferative activity against human PC3 cells after 96 hrs by SRB assay; assay type: functional, cell-based; conditions: PC-3, 96 h
[5] = Antiproliferative activity against human DU145 cells after 96 hrs by SRB assay; assay type: functional, cell-based; conditions: DU-145, 96 h
[6] = Antiproliferative activity against human HCT116 cells after 96 hrs by SRB assay; assay type: functional, cell-based; conditions: HCT-116, 96 h
[7] = Antiproliferative activity against human HT-29 cells after 96 hrs by SRB assay; assay type: functional, cell-based; conditions: HT-29, 96 h
[8] = Antiproliferative activity against human HL60 cells after 96 hrs by SRB assay; assay type: functional, cell-based; conditions: HL-60, 96 h
[9] = Antiproliferative activity against HAF cells after 96 hrs by SRB assay; assay type: cell-based; conditions: Homo sapiens
[10] = Selectivity index, ratio of IC50 for HAF cells to IC50 for human MDA-MB-231 cells; assay type: functional
MCF7 = assay: Selectivity index, ratio of IC50 for HAF cells to IC50 for human MCF7 cells; assay type: functional
T47D = assay: Selectivity index, ratio of IC50 for HAF cells to IC50 for human T47D cells; assay type: functional
PC-3 = assay: Selectivity index, ratio of IC50 for HAF cells to IC50 for human PC3 cells; assay type: functional
DU-145 = assay: Selectivity index, ratio of IC50 for HAF cells to IC50 for human DU145 cells; assay type: functional
HCT-116 = assay: Selectivity index, ratio of IC50 for HAF cells to IC50 for human HCT116 cells; assay type: functional
[11] = Selectivity index, ratio of IC50 for HAF cells to IC50 for human HT-29 cells; assay type: functional
HL-60 = assay: Selectivity index, ratio of IC50 for HAF cells to IC50 for human HL60 cells; assay type: functional

Q: With COc1cc2c(cc1C(=O)NC1CCCCC1)CC[C@H]1C(C)(C)[C@@H](O)CC[C@]21C as the compound, how does the IC50 [1] read?
A: Its IC50 is over 25 µM.

Q: And the IC50 [2]?
A: Its IC50 is over 25 µM.

Q: What about the IC50 [3] of the same compound?
A: Its IC50 is 10.9 µM.

Q: What does the source list for COC(=O)c1ccccc1NC(=O)c1cc2c(cc1OC)[C@@]1(C)CC[C@H](O)C(C)(C)[C@@H]1CC2?
A: IC50 [1]: 7.98 µM; IC50 [2]: 4.31 µM; IC50 [3]: 1.22 µM

Q: For COc1cc2c(cc1C(=O)N(C)C)CC[C@H]1C(C)(C)[C@@H](O)CC[C@]21C, which IC50 [1] is on record?
A: Its IC50 is over 25 µM.

Q: What about the IC50 [2] of the same compound?
A: The IC50 was over 25 µM.

Q: What about the IC50 [3] of the same compound?
A: Its IC50 is over 25 µM.

Q: With COc1ccc(OC(=O)c2cc3c(cc2OC)[C@@]2(C)CC[C@H](O)C(C)(C)[C@@H]2CC3)cc1 as the compound, how does the IC50 [1] read?
A: The IC50 was 14.3 µM.

Q: And the IC50 [2]?
A: Its IC50 is over 25 µM.

Q: What about the IC50 [3] of the same compound?
A: The IC50 was 5.35 µM.

Q: Which IC50 [1] does the source give for COC(=O)c1ccc(NC(=O)c2cc3c(cc2OC)[C@@]2(C)CC[C@H](O)C(C)(C)[C@@H]2CC3)cc1 here?
A: The IC50 was 6.81 µM.

Q: What about the IC50 [2] of the same compound?
A: Its IC50 is 4.61 µM.

Q: What about the IC50 [3] of the same compound?
A: Its IC50 is 2.7 µM.

Q: Which IC50 [1] does the source give for COc1cc2c(cc1C(=O)Nc1ccc(N)cc1)CC[C@H]1C(C)(C)[C@@H](O)CC[C@]21C here?
A: Its IC50 is 3.09 µM.

Q: What about the IC50 [2] of the same compound?
A: The IC50 was 5.21 µM.

Q: And the IC50 [3]?
A: The IC50 was 0.23 µM.

Q: Which IC50 [1] does the source give for COc1cc2c(cc1C(=O)Nc1ccc(Cl)cc1)CC[C@H]1C(C)(C)[C@@H](O)CC[C@]21C here?
A: The IC50 was 1.03 µM.

Q: What about the IC50 [2] of the same compound?
A: The IC50 was 1.46 µM.

Q: What about the IC50 [3] of the same compound?
A: The IC50 was 0.15 µM.

Q: With COc1cc2c(cc1C(=O)N(C)c1ccc(F)cc1)CC[C@H]1C(C)(C)[C@@H](O)CC[C@]21C as the compound, how does the IC50 [1] read?
A: The IC50 was over 25 µM.

Q: And the IC50 [2]?
A: The IC50 was over 25 µM.

Q: What about the IC50 [3] of the same compound?
A: Its IC50 is over 25 µM.

Q: Which results are given for COc1ccc(NC(=O)c2cc3c(cc2OC)[C@@]2(C)CC[C@H](O)C(C)(C)[C@@H]2CC3)cc1?
A: IC50 [1]: 0.41 µM; IC50 [2]: 0.28 µM; IC50 [3]: 0.03 µM; IC50 [4]: 0.5 µM; IC50 [5]: 0.54 µM; IC50 [6]: 0.51 µM; IC50 [7]: 0.52 µM; IC50 [8]: 0.41 µM; IC50 [9]: 4.01 µM; Ratio IC50 [10]: 10; Ratio IC50 (MCF7): 10; Ratio IC50 (T47D): 10; Ratio IC50 (PC-3): 10; Ratio IC50 (DU-145): 10; Ratio IC50 (HCT-116): 10; Ratio IC50 [11]: 10; Ratio IC50 (HL-60): 10

Q: For CC1(C)[C@@H](O)CC[C@]2(C)c3cc(O)c(C(=O)Nc4ccc(F)cc4)cc3CC[C@@H]12, which IC50 [1] is on record?
A: Its IC50 is 9.25 µM.

Q: What about the IC50 [2] of the same compound?
A: The IC50 was 6.05 µM.

Q: And the IC50 [3]?
A: Its IC50 is 2.55 µM.

Q: Which IC50 [1] does the source give for COc1cc2c(cc1C(=O)Nc1ccccc1Cl)CC[C@H]1C(C)(C)[C@@H](O)CC[C@]21C here?
A: Its IC50 is 3.69 µM.

Q: What about the IC50 [2] of the same compound?
A: Its IC50 is 6.55 µM.

Q: And the IC50 [3]?
A: Its IC50 is 0.82 µM.

Q: Which results are given for COc1ccc(N(C)C(=O)c2cc3c(cc2OC)[C@@]2(C)CC[C@H](O)C(C)(C)[C@@H]2CC3)cc1?
A: IC50 [1]: > 25 µM; IC50 [2]: > 25 µM; IC50 [3]: 12.7 µM

Q: Which IC50 [1] does the source give for COc1cc2c(cc1C(=O)Nc1ccc(C)cc1)CC[C@H]1C(C)(C)[C@@H](O)CC[C@]21C here?
A: The IC50 was 1.22 µM.

Q: What about the IC50 [2] of the same compound?
A: The IC50 was 0.22 µM.

Q: What about the IC50 [3] of the same compound?
A: The IC50 was 0.23 µM.

Q: What about the IC50 [4] of the same compound?
A: The IC50 was 1.48 µM.

Q: What about the IC50 [5] of the same compound?
A: Its IC50 is 2.09 µM.

Q: What about the IC50 [6] of the same compound?
A: Its IC50 is 0.94 µM.

Q: What about the IC50 [7] of the same compound?
A: The IC50 was 0.28 µM.

Q: And the IC50 [8]?
A: The IC50 was 3.52 µM.

Q: What about the IC50 [9] of the same compound?
A: Its IC50 is 3.85 µM.

Q: And the “Ratio IC50” value [10]?
A: Its value is 3.1.

Q: What about the “Ratio IC50” value (MCF7) of the same compound?
A: Its value is 3.1.

Q: What about the “Ratio IC50” value (T47D) of the same compound?
A: The value was 3.1.

Q: What about the “Ratio IC50” value (PC-3) of the same compound?
A: The value was 3.1.

Q: And the “Ratio IC50” value (DU-145)?
A: The value was 3.1.

Q: What about the “Ratio IC50” value (HCT-116) of the same compound?
A: The value was 3.1.

Q: What about the “Ratio IC50” value [11] of the same compound?
A: Its value is 3.1.

Q: And the “Ratio IC50” value (HL-60)?
A: The value was 3.1.
